Laboratory results: patent US20070243144A1, “External Preparation” (TOYO SHINYAKU CO., LTD, priority 2004, published 2007)

Test system: HFSKF-II cells (human skin fibroblast)
Experiment: Ability to suppress the generation of active oxygen caused by ultraviolet radiation
Format: cell-based
Details: 100 μg/mL in medium with 0.03 wt % hydrogen peroxide; UV A 365 nm 4.4 J/cm^2; DCFH-DA fluorescence; six wells
Procedure: HFSKF-II cells (human skin fibroblast; obtained from RIKEN) were seeded in a 96-well plate at a concentration of 2×10^5 cells/well, and using 0.1 mL of standard medium (Ham's F-12 medium containing 15% of fetal calf serum; manufactured by Sigma-Aldrich), these were incubated for 24 hours at 37° C. in a 5% CO2 atmosphere. Next, the plate was washed three times with PBS by the method of Hong Wang et al. (Free Radic. Biol. Med., 1999). Then the medium was replaced with a standard medium containing 100 μM of DCFH-DA (2′,7′-dichlorofluorescein diacetate; manufactured by Sigma-Aldrich) and this was incubated for 10 minutes at 37° C. in a 5% CO2 atmosphere. Next, the plate was washed three times with PBS. […] UV A is a UV radiation that readily passes through skin, and is known to promote skin aging.
Next, the fluorescence F of the DCFH-DA that is emitted due to the presence of active oxygen was measured with a multispectrometer (Varioscan; excitation wavelength: 485±10 nm, detection wavelength: 530±10 nm; Thermo Electron Corporation), and the suppression rate of the active oxygen generation due to UV radiation when the pueraria flower extract was employed was calculated from the following formula. […] Fsample: The fluorescence measured after the medium was replaced with a standard medium that contains pueraria flower extract and UV A was irradiated. […]

COC1=C(OC)C(=O)C(C/C=C(\C)CC/C=C(\C)CC/C=C(\C)CC/C=C(\C)CC/C=C(\C)CC/C=C(\C)CC/C=C(\C)CC/C=C(\C)CC/C=C(\C)CCC=C(C)C)=C(C)C1=O [Coenzyme Q10, coenzyme Q10]
Suppression rate of the active oxygen generation (%): 30.6 ± 7.7%
